Results taken from patent US8785211B2 (priority 2005, dated 2014).

Molecular target: wild type α-HL single channel (Staphylococcus aureus, UniProt P09616)
Format: binding

Chain of wild type α-HL single channel (P09616 27-319 limits assumed): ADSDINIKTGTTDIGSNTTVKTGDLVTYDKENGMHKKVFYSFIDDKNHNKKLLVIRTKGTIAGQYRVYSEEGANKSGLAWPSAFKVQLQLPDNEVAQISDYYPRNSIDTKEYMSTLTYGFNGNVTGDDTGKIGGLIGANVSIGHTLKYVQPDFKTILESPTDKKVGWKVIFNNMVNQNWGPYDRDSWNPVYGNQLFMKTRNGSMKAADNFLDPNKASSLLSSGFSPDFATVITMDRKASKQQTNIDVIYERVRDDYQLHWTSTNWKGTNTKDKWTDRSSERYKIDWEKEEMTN

heptakis-6-amino-β-cyclodextrin [am7-βCD]
Cyclodextrin binding to wild type pore: led to cyclodextrin binding events
